In test [1] the test system is phosphatase. As to conditions: FIG. 5.
Protocol: A Tris buffer (25 μL, 50 mM, pH 7.4, modified with 0.5 mM DTT) was used to dissolve the appropriate phosphatase (20-100 ng) together with BSA (0.25 μL, 10 mg/mL), anti-nitrotyrosine antibody (0.5 μL, 0.5 mg/mL in PBS pH 7.4), FITC-goat-anti-mouse antibody (0.5 μL, 4 μg/mL). The resulting mixture was added to Pamchip® microarrays and the fluorescence imaged in real time using a Pamstation® PS12 instrument. The images were analyzed using the Bionavigator software package (Pamgene International BV, 's-Hertogenbosch, The Netherlands).
To the mixture described in Example 14, a 1 μL amount of sodium vanadate solutions with appropriate concentration was added.
Test [2] deals with phosphatase PTP1B (Homo sapiens, UniProt P18031). The note with it: spotted with 1 mM peptide solution; one hour incubation with PTP1B in Tris-buffer containing DTT; FIG. 7. On the procedure: After one hour incubation with phosphatase PTP1B in a Tris-buffer containing DTT, the microarray was washed and treated with a solution of PY20 antibody. […] The left image: not treated with PTP1B. The right image: treated with PTP1B.
Chain of phosphatase PTP1B (P18031 whole entry): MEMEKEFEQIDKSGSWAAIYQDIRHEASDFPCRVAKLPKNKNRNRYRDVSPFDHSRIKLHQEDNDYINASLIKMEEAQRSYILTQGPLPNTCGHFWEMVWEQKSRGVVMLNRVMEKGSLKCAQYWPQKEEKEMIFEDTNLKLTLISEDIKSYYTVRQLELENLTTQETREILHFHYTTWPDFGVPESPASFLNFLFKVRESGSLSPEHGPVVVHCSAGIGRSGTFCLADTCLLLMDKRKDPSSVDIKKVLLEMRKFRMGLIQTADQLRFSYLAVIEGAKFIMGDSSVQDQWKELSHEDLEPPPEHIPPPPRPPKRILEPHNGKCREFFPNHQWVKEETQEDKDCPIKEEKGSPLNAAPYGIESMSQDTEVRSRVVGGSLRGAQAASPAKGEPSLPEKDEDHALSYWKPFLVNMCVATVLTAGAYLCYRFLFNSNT

Turning to sodium ortho-vanadate, in test [1], the “inhibition of the phosphatase enzyme activity” value is on record as “concentration dependent inhibition”.

For the substance “H-CDADE-(3-Br-pY)-LIPQQG-NH2 [3-bromo-phosphotyrosine peptide]”, the “recognition as substrate and dephosphorylation by phosphatase” value in test [2] is “recognized by the phosphatase and dephosphorylated equally well”.
